According to paper PMC11099041, “Tissue distribution and retention drives efficacy of rapidly clearing VHL-based PROTACs” (Communications Medicine, 2024):

What was measured:
[1] = molecular target: T1, CYP2C8 (Homo sapiens, UniProt P10632); assay: Reversible P450 inhibition in HLM; assay type: biochemical; conditions: human liver microsomes, pH 7.4, probe paclitaxel, substrate Paclitaxel
T1 construct: phosphate buffer (100 mM, pH 7.4) containing human liver microsomes (HLM); from tissue; host or cells: human liver microsomes
T1 sequence (P10632 1-490): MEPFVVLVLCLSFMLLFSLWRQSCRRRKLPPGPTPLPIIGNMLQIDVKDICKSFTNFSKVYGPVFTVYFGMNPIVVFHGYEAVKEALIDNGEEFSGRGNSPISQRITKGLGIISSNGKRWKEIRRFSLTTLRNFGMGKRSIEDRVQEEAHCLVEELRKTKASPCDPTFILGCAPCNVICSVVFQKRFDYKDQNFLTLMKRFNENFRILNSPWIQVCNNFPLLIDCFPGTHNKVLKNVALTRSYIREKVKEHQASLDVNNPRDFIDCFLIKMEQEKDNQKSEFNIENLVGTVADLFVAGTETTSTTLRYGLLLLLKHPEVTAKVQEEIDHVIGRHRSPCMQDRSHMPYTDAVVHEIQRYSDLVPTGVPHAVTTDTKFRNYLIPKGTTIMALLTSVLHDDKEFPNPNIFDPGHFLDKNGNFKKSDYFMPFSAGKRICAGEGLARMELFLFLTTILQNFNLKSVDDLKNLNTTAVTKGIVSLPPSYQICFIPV
Experimental: (§1) The reversible P450 inhibition assay was conducted in triplicate on a BioCel 1200 System, V11 (Agilent, CA), as previously described by Kosaka, et al.[28] […] Individual P450 specific substrates included midazolam for CYP3A4/5, dextromethorphan for CYP2D6, S-(+)-mephenytoin for CYP2C19, S-(-)-warfarin for CYP2C9, paclitaxel for CYP2C8, and tacrine for CYP1A2. P450 activity was expressed as the peak area ratio of a P450-specific metabolite formed relative to its internal standard, and inhibition percentage was calculated from P450 activity of samples relative to the solvent control. Inhibition data were processed using Prism (GraphPad Software, San Diego, CA) to calculate IC50 values for each P450 enzyme.

[2] = molecular target: T2, CYP2D6 (Homo sapiens, UniProt P10635); assay: Reversible P450 inhibition in HLM; assay type: biochemical; conditions: human liver microsomes, pH 7.4, probe dextromethorphan, substrate Dextromethorphan
T2 construct: phosphate buffer (100 mM, pH 7.4) containing human liver microsomes (HLM); from tissue; host or cells: human liver microsomes
Experimental: as §1

[3] = rat, in vivo, iv, 4 mg/kg
Text: Male Sprague Dawley rats, intact or bile-cannulated, were from Envigo RMS, Inc. The animals were acclimated to study conditions for five days prior to dose administration. During acclimation, animals were individually housed in suspended, stainless steel, wire-mesh cages. During the test period, animals were placed in Nalgene cages designed for the collection of urine, feces, and bile. Certified Rodent Diet #2016C or 2016CM (Envigo RMS, Inc.) were provided ad libitum. Water was provided fresh daily. Environmental controls for the animal room were set to maintain a temperature of 20-26 °C, a relative humidity of 50 ± 20%, and a 12-hour light/12-hour dark cycle. […] The vehicle for the IV dose was 20% 2-hydroxypropyl-β-cyclodextrin (HP-β-CD) in 50 mM sodium acetate buffer, pH 4.0. […] The supernatant was removed, and the formulation appeared to be a very slight yellow solution. Stability was checked by HPLC analysis of pre- and post-dose aliquots. Animals were not fasted. The actual amount administered was determined by weighing the dose syringe before and after dose administration. The IV dose of 4 mg/kg was administered via a tail vein. For QWBA rats, one animal/time point was prepared for QWBA at approximately 0.25, 1, 4, 8, 24, 48, 168, and 336 hours. […] Blood was maintained on wet ice until being aliquoted for radioanalysis and centrifuged to obtain plasma. […] Each carcass was drained, blotted dry, placed into an appropriately labeled bag, and placed on dry ice or stored at ~-70 °C for at least 2 hours. The frozen carcasses were embedded in chilled carboxymethylcellulose and frozen into blocks. Embedded carcasses were stored at ~-20 °C in preparation for autoradiographic analysis. The samples were stored at -70 °C before analysis. […] All samples were analyzed for radioactivity in PerkinElmer Model 2910TR liquid scintillation counters for at least 5 min or 100,000 counts. Each sample was homogenized or mixed, as applicable, before radioanalysis in duplicate within 10% of the mean value. Scintillation counting data were automatically corrected for counting efficiency using the external standardization technique and an instrument-stored quench curve generated from a series of sealed quenched standards. […] The samples were allowed to sit at least overnight to allow any foaming to dissipate. Ultima Gold XR scintillation cocktail was added, and the samples were shaken and analyzed by liquid scintillation counting (LSC). Plasma was also analyzed by LSC. The urine, bile, cage rinse, and cage wash samples were mixed by shaking, and duplicate weighed aliquots were analyzed directly by LSC. The mean time concentration profile was generated for each group, and an overall AUC was then calculated with these sparse samples of rats and mice. […] The following parameters were estimated whenever possible: C0, Back-extrapolated concentration at time 0; Cmax, Maximum observed concentration; Tmax, Time of maximum observed concentration; AUC0-t, Area under the concentration-time curve from hour 0 to the last measurable concentration, estimated by the linear trapezoidal rule; AUC0-336, Area under the concentration-time curve from hour 0 to hour 336, estimated by the linear trapezoidal rule; DN AUC0-336, Dose normalized AUC0-336, calculated as AUC0-336/dose level; AUC0-∞, Area under the concentration-time curve from hour 0 to infinity (Day 1 only), calculated as follows: AUC0-∞ = AUC0-t + Ct/λz, where Ct is the last measurable concentration and λz is the elimination rate constant; t1/2, Elimination half-life, determined by ln(2)/λz; CL, Clearance, calculated as dose/AUC0-inf; Vd, Volume of distribution based on the terminal phase, calculated as: dose/(λz × AUC0-∞) Nominal doses and sampling times were used. […] Embedded zeros were excluded from kinetic analysis.

T2 sequence (P10635 whole entry): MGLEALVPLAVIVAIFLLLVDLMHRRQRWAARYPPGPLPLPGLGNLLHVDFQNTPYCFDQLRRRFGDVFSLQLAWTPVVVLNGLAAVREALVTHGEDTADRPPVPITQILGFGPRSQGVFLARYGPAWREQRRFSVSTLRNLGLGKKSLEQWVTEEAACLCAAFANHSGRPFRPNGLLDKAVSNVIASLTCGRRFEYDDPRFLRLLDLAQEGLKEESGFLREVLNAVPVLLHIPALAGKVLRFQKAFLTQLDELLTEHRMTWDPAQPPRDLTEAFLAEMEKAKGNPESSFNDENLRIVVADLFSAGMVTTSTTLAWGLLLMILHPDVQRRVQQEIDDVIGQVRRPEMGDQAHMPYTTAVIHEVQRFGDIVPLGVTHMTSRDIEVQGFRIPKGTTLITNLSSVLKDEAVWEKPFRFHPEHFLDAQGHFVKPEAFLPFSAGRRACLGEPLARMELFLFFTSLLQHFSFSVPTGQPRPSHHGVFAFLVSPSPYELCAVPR

Compound	IC50 [1] [µM]	IC50 [2] [µM]	AUC0–∞ in plasma and blood [3]	Cmax of radioactivity in blood [3] [µg/g]	Cmax of radioactivity in plasma [3] [µg/g]	Initial decrease of radioactivity in blood and plasma [3]	Radioactivity in plasma and blood at 336 hours [3] [ng/g]	Terminal clearance (CL) [3]	Terminal elimination half-life (t1/2) in plasma and blood [3] [h]	Tmax in blood and plasma [3] [h]	Volume of distribution (Vd) [3] [L/kg]
Cc1ncsc1-c1ccc(C(C)NC(=O)C2CC(O)CN2C(=O)C(c2cc(N3CCC(CN4CCC(OC5CC(Oc6cc(N7C8CCC7CN(c7cc(-c9ccccc9O)nnc7N)C8)ccn6)C5)CC4)CC3)no2)C(C)C)cc1 (centres unmarked) [A947]	> 10	> 10	–	–	–	–	–	–	–	–	–
Cc1ncsc1-c1ccc(C(C)NC(=O)C2CC(O)CN2C(=O)C(c2cc(N3CCC(CN4CCC(OC5CC(Oc6cc(N7C8CCC7CN(c7cc(-[14c]9[14cH][14cH][14cH][14cH][14c]9O)nnc7N)C8)ccn6)C5)CC4)CC3)no2)C(C)C)cc1 (centres unmarked) [14C-A947]	–	–	~ 18 µg h/g	1.13	1.22	greater than 90%	3 to 6	~ 5.8 mL/min/kg	72 to 75	0.25	23.9
